Measured values as given in ChEMBL document CHEMBL1139224, “Discovery and metabolic stabilization of potent and selective 2-amino-N-(adamant-2-yl) acetamide 11beta-hydroxysteroid dehydrogenase type 1 inhibitors” (J Med Chem, 2007).

Key:
[1] = Intrinsic clearance in human liver microsomes at 1 uM; format: ADME, Microsome
[2] = biological target: 11-beta-hydroxysteroid dehydrogenase 1 (Mus musculus, UniProt P50172); test: Inhibition of mouse 11beta-HSD1 expressed in Escherichia coli by SPA
[3] = Intrinsic clearance in mouse liver microsomes at 1 uM; format: ADME, Microsome
[4] = biological target: T1, 11-beta-hydroxysteroid dehydrogenase 1 (Homo sapiens, UniProt P28845); test: Inhibition of human 11beta-HSD1 expressed in HEK293 cells by FPIA; format: cell-based
[5] = biological target: T2, 11-beta-hydroxysteroid dehydrogenase type 2 (Homo sapiens, UniProt P80365); test: Inhibitory activity against human 11beta-HSD2 by SPA
T2 sequence (P80365 whole entry): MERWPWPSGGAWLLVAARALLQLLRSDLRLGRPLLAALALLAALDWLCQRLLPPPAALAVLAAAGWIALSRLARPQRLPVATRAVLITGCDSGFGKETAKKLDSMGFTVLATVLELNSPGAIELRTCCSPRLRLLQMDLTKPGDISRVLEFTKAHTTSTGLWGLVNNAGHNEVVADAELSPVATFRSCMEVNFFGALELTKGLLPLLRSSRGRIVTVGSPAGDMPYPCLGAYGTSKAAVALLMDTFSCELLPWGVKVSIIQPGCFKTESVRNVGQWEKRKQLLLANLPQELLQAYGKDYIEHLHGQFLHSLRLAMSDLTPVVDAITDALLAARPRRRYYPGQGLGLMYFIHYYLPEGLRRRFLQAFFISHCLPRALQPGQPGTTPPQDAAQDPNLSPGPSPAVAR

[6] = biological target: T3, 11-beta-hydroxysteroid dehydrogenase type 2 (Mus musculus, UniProt P51661); test: Inhibitory activity against mouse 11beta-HSD2 by SPA
T3 sequence (P51661 whole entry): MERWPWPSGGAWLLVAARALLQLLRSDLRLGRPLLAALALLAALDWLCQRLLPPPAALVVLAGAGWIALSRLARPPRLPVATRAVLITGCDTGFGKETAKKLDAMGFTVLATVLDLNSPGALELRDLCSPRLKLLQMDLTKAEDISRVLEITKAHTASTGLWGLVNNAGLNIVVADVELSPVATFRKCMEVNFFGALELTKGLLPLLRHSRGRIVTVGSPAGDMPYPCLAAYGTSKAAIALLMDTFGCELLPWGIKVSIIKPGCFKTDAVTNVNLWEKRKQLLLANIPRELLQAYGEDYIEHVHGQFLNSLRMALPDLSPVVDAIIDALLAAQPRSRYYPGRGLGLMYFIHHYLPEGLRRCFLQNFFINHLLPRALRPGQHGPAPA

[7] = biological target: 11-beta-hydroxysteroid dehydrogenase 1 (Rattus norvegicus, UniProt P16232); test: Inhibitory activity against rat 11beta-HSD1
[8] = biological target: T1, 11-beta-hydroxysteroid dehydrogenase 1; test: Inhibition of human 11beta-HSD1 expressed in Escherichia coli by SPA
[9] = Intrinsic clearance in rat liver microsomes at 1 uM; format: ADME, Microsome
[10] = biological target: T4, 11-beta-hydroxysteroid dehydrogenase type 2 (Rattus norvegicus, UniProt P50233); test: Inhibitory activity against rat 11beta-HSD2
T4 sequence (P50233 whole entry): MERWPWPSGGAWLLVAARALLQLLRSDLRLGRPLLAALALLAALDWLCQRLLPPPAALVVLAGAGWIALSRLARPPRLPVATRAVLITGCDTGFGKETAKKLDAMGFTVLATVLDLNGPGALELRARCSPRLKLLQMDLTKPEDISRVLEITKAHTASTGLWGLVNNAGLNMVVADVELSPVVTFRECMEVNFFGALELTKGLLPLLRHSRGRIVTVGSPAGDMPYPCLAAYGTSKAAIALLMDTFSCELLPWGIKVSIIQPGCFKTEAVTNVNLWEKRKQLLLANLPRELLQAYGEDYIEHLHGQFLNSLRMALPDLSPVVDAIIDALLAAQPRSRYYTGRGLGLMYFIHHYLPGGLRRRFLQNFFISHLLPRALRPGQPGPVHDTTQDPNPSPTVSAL

[11] = Half life in mouse at 10 mg/kg, po; format: ADME, organism-based; design: dose 10 mg/kg, route oral; conditions: in vivo
[12] = Plasma clearance in mouse at 10 mg/kg, iv; format: ADME, organism-based; design: dose 10 mg/kg, route intravenous
[13] = Volume of distribution in mouse at 10 mg/kg, iv; format: ADME, organism-based; design: dose 10 mg/kg, route intravenous; conditions: in vivo, read-out: Vdss
[14] = Half life in mouse at 10 mg/kg, iv; format: ADME, organism-based; design: dose 10 mg/kg, route intravenous; conditions: in vivo
[15] = Oral bioavailability in mouse at 10 mg/kg, po; format: ADME, organism-based; conditions: in vivo
Mus musculus = test: AUC in mouse at 10 mg/kg, po; format: ADME, organism-based, Plasma; design: dose 10 mg/kg, route oral; conditions: in vivo
Rattus norvegicus = test: Area under the curve in rat at 5 mg/kg, po; format: ADME, organism-based; design: dose 5 mg/kg, route oral; conditions: in vivo
[16] = Half life in rat at 5 mg/kg, iv; format: ADME, organism-based; design: dose 5 mg/kg, route intravenous; conditions: in vivo
[17] = Oral bioavailability in rat at 5 mg/kg, po; format: ADME, organism-based; conditions: in vivo
[18] = Plasma clearance in rat at 5 mg/kg, iv; format: ADME, organism-based; design: dose 5 mg/kg, route intravenous
[19] = Volume of distribution in rat at 5 mg/kg, iv; format: ADME, organism-based; design: dose 5 mg/kg, route intravenous; conditions: in vivo, read-out: Vss
[20] = Half life in rat at 5 mg/kg, po; format: ADME, organism-based; design: dose 5 mg/kg, route oral; conditions: in vivo

Sequence of 11-beta-hydroxysteroid dehydrogenase 1 (Rattus norvegicus, UniProt P16232) (P16232 whole entry): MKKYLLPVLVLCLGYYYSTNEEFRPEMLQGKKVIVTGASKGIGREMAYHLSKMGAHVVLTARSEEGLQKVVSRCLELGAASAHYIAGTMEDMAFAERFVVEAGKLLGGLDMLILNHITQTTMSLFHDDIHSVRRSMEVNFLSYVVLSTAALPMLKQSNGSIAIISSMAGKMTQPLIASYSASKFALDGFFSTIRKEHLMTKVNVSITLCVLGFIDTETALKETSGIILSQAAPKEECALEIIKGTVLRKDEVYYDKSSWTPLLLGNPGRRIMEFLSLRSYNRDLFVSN
Sequence of 11-beta-hydroxysteroid dehydrogenase 1 (Mus musculus, UniProt P50172) (P50172 whole entry): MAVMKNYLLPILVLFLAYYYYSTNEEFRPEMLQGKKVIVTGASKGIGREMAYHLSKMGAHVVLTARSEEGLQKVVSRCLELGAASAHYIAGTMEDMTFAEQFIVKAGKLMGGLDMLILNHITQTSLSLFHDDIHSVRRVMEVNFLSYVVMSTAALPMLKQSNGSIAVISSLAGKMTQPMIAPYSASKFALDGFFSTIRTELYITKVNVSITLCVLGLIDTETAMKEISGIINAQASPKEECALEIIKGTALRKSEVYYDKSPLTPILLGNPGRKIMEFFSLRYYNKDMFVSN
T1 sequence (P28845 whole entry): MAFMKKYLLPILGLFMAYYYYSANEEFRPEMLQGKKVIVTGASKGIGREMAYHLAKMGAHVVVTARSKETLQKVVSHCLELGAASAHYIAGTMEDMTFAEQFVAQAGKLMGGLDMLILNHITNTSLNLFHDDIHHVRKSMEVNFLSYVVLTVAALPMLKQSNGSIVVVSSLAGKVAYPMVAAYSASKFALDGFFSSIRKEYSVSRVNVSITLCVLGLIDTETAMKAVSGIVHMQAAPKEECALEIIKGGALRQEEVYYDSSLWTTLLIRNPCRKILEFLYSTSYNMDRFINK

CLint scaled at 1 µM [1] [mL/min/kg] | Ki [2] [nM] | CLint scaled at 1 µM [3] [mL/min/kg] | IC50 [4] [nM] | IC50 [5] [nM] | IC50 [6] [nM] | Ki [8] [nM] | Compound | further results
167 | 51 | 2370 | – | – | – | – | O=C(CN1CCN(c2ccc(C(F)(F)F)cn2)CC1)NC1C2CC3CC(C2)CC1C3 (stereo unspecified) | –
< 16.7 | 33 | 233 | – | – | – | – | CC(C(=O)N[C@H]1C2C[C@@]3(O)CC1C[C@@](F)(C2)C3)N1CCN(c2ccc(C(F)(F)F)cn2)CC1 (mixture of isomers) | –
< 16.7 | 2 | 1000 | 35 | > 100000 | > 100000 | 3 | O=C(CN1CC[C@H](C(F)(F)F)C1)N[C@H]1C2CC3CC1C[C@](O)(C3)C2 | Ki [7]: 3 nM; CLint scaled at 1 µM [9]: 467 mL/min/kg; IC50 [10]: > 100000 nM
< 16.7 | 4100 | < 100 | – | – | – | – | CC(C(=O)N[C@H]1C2C[C@@]3(O)CC1C[C@@](O)(C2)C3)N1CCN(c2ccc(C(F)(F)F)cn2)CC1 (mixture of isomers) | –
< 16.7 | 7 | 383 | – | – | > 100000 | – | CC(C(=O)N[C@H]1C2CC3CC1C[C@](O)(C3)C2)N1CC(Oc2ccccc2F)C1 (stereo partly specified) | half-life [11]: 1 h; clearance [12]: 120 mL/min/kg; Vd [13]: 1.2 L/kg; Ki [7]: 52 nM; half-life [14]: 0.3 h; bioavailability [15]: 58%; CLint scaled at 1 µM [9]: 66.7 mL/min/kg; IC50 [10]: > 100000 nM; AUC (Mus musculus): 0.8 ug/hr.ml
16.7 | 34 | 683 | 130 | > 100000 | > 100000 | 8 | O=C(CN1CCN(c2ccc(C(F)(F)F)cn2)CC1)N[C@H]1C2CC3CC1C[C@](O)(C3)C2 | AUC (Rattus norvegicus): 2.4 ug/hr.ml; half-life [16]: 1.4 h; Ki [7]: 6 nM; bioavailability [17]: 65%; CLint scaled at 1 µM [9]: < 50 mL/min/kg; clearance [18]: 23.3 mL/min/kg; Vd [19]: 2.2 L/kg; half-life [20]: 1.3 h; IC50 [10]: > 100000 nM
100 | – | 2170 | – | > 100000 | > 100000 | – | CC(C)(C(=O)N[C@H]1C2CC3CC1C[C@](O)(C3)C2)N1CCN(c2ccc(C(F)(F)F)cn2)CC1 | –
– | 260 | – | 36 | – | – | 7 | C[C@@H](C(=O)N[C@H]1C2CC3CC1C[C@](O)(C3)C2)N1CCN(c2ccc(C(F)(F)F)cn2)CC1 (stereo in doubt; (S)-22f) | –
33.3 | 120 | 2270 | 550 | > 20000 | > 100000 | 32 | O=C(CN1CCN(c2ccc(C(F)(F)F)cn2)CC1)N[C@H]1C2CC3CC1C[C@](F)(C3)C2 | –
217 | 110 | 5130 | > 10000 | > 100000 | > 100000 | 180 | O=C(CN1CCN(c2ccc(C(F)(F)F)cn2)CC1)NC1C2CC3CC(C2)CC1(O)C3 (racemic) | –
< 16.7 | 24 | < 100 | 450 | > 100000 | > 100000 | 21 | C[C@@H](C(=O)N[C@H]1C2CC3CC1C[C@](O)(C3)C2)N1CC[C@@H](F)C1 | –
